Measurements reported in publication PMC10935503 (Acta Pharmaceutica Sinica. B, 2023).

Key:
Format in all cases: cell-based
[1] = test system: HIV-1 K103N + Y181C (RES056); experiment: microbe, parasite or virus in culture; conditions: Human immunodeficiency virus 1, MT4, read-out: EC50 RES056
HIV-1 WT strain (IIIB) = experiment: Anti-HIV-1 activity in MT-4 cells, MTT method, WT strain IIIB; conditions: for EC50: Human immunodeficiency virus 1, IIIB, MT4, read-out: EC50 IIIB
[2] = Cytotoxicity in mock-infected MT-4 cells, MTT method; conditions: human

Compound | EC50 [1] [µM] | EC50 (HIV-1 WT strain (IIIB)) [µM] | CC50 at 5 days [2] [µM] | EC50 IIIB (HIV-1 WT strain (IIIB); MT-4 cells, MTT method, HIV-1 IIIB (WT))
Cc1cc(C#N)cc(C)c1Oc1nc(Nc2ccc(C#N)cc2)nc2c1[S+]([O-])CCC2 (stereo not drawn) [16a, 4-((2-((4-Cyanophenyl)amino)-5-oxido-7,8-dihydro-6H-thiopyrano[3,2-d]pyrimidin-4-yl)oxy)-3,5-dimethylbenzonitrile] | 0.445 ± 0.0957 | 0.00799 ± 0.00095 | ≥ 19.7 | 
Cc1cc(C#N)cc(C)c1Oc1nc(N2CCN(Cc3ccc(S(N)(=O)=O)cc3)CC2)nc2c1SCCC2 [19a, 4-((4-(4-(4-Cyano-2,6-dimethylphenoxy)-7,8-dihydro-6H-thiopyrano[3,2-d]pyrimidin-2-yl)piperazin-1-yl)methyl)benzenesulfonamide] |  | > 3.08 | 19.3 ± 3.04 | lost potency
Cc1cc(C#N)cc(C)c1Oc1nc(NCCn2ccc(=O)[nH]c2=O)nc2c1SCCC2 [20a, 4-((2-((2-(2,4-Dioxo-3,4-dihydropyrimidin-1(2H)-yl)ethyl)amino)-7,8-dihydro-6H-thiopyrano[3,2-d]pyrimidin-4-yl)oxy)-3,5-dimethylbenzonitrile] | > 248 | 0.233 ± 0.158 | > 284 | 
Cc1cc(/C=C/C#N)cc(C)c1Oc1nc(NCCn2ccc(=O)[nH]c2=O)nc2c1SCCC2 [20b, (E)-3-(4-((2-((2-(2,4-Dioxo-3,4-dihydropyrimidin-1(2H)-yl)ethyl)amino)-7,8-dihydro-6H-thiopyrano[3,2-d]pyrimidin-4-yl)oxy)-3,5-dimethylphenyl)acrylonitrile] | 22.7 | 0.02 ± 0.0198 | 142 ± 31.1 | 
Cc1cc(C)c(Oc2nc(NCCn3ccc(=O)[nH]c3=O)nc3c2SCCC3)c(C)c1 [20c, 1-(2-((4-(Mesityloxy)-7,8-dihydro-6H-thiopyrano[3,2-d]pyrimidin-2-yl)amino)ethyl)pyrimidine-2,4(1H,3H)-dione] | > 152 | 0.523 ± 0.466 | 152 ± 28.3 | 
Cc1cc(C#N)cc(C)c1Oc1nc(NC2CCN(Cc3ccc(C#N)cc3)CC2)nc2c1SCCC2 [23a, 4-((2-((1-(4-Cyanobenzyl)piperidin-4-yl)amino)-7,8-dihydro-6H-thiopyrano[3,2-d]pyrimidin-4-yl)oxy)-3,5-dimethylbenzonitrile] | 0.263 ± 0.0971 | 0.00444 ± 0.00139 | 3.76 ± 0.32 | 
Cc1cc(C#N)cc(C)c1Oc1nc(NC2CCN(Cc3ccccc3C#N)CC2)nc2c1SCCC2 [23c, 4-((2-((1-(2-Cyanobenzyl)piperidin-4-yl)amino)-7,8-dihydro-6H-thiopyrano[3,2-d]pyrimidin-4-yl)oxy)-3,5-dimethylbenzonitrile] | 1.16 ± 0.184 | 0.0071 ± 0.00269 | 3.86 ± 1.14 | 
Cc1cc(C#N)cc(C)c1Oc1nc(NC2CCN(Cc3cccc(S(N)(=O)=O)c3)CC2)nc2c1SCCC2 [23d, 3-((4-((4-(4-Cyano-2,6-dimethylphenoxy)-7,8-dihydro-6H-thiopyrano[3,2-d]pyrimidin-2-yl)amino)piperidin-1-yl)methyl)benzenesulfonamide] | 0.79 ± 0.134 | 0.00465 ± 0.00065 | 5.61 ± 3.42 | 
